Results on 56 compounds are retold here after article PMC6792352, “Limited Chemical Structural Diversity Found to Modulate Thyroid Hormone Receptor in the Tox21 Chemical Library” (Environmental Health Perspectives, 2019).

As a reminder, the CC50 is the concentration giving 50% cytotoxicity.

SMILES strings stand for the structures. Counter-ions that a name gives are not always drawn.

A short description of the series: in vitro. The note with it: rat, gh3-tre-luc cells.

Regarding `CCOC(=O)COc1ccc(Cl)cc1Cl` [2,4-D-ethyl ester], the CC50 at 24 h (AC50 (uM) modified / 1000, Tox21_110001=Tox21_302216, viability, 1 nM T3 present, 24 h) was > 90 µM. With `CC(C)=CCN1CC[C@@]2(C)c3cc(O)ccc3C[C@@H]1[C@@H]2C` [(-)-Pentazocine succinate], half-maximal cytotoxicity (AC50 (uM) modified / 1000, Tox21_110001=Tox21_112877, viability, 1 nM T3 present, 24 h) (CC50 at 24 h) was put at 34.4 µM. The compound `Cc1nc2sccn2c(=O)c1CCN1CCC(=C(c2ccc(F)cc2)c2ccc(F)cc2)CC1` [Ritanserin] displayed a CC50 at 24 h (AC50 (uM) modified / 1000) of 28.7 µM.

Turning to `Cc1cccc(C)c1NC(=O)CN1CCCCCC1` [Pincainide], the CC50 at 24 h (AC50 (uM) modified / 1000) was > 50 µM.

As to `CCOc1ccc2[nH]cc(C(=O)NCc3ccccc3)c(=O)c2n1` [CP-457920], where the note is “AC50 (uM) modified / 1000”, the half-maximal cytotoxic concentration (CC50) at 24 h was > 90 µM. Take `COc1cc(O)cc(O)c1` [Flamenol]: the CC50 at 24 h (AC50 (uM) modified / 1000) was > 50 µM. Turning to `c1ccc2ncccc2c1` [Quinoline], the CC50 at 24 h (AC50 (uM) modified / 1000) was > 90 µM. With `OCC1CCCO1` (centres unmarked) [Tetrahydrofurfuryl alcohol], the cytotoxic concentration (CC50) at 24 h (AC50 (uM) modified / 1000) was > 90 µM. The same measure, in the same setting: to `CN(C)CCO` [Dimethylaminoethanol] belongs > 90 µM; to `C=CCN(C1=NCCN1)c1c(Cl)cccc1Cl` [Alinidine], > 50 µM. With `C[C@]12CC[C@H](O)CC1=CC[C@@H]1[C@@H]2CC[C@]2(C)C(=O)CC[C@@H]12` [Dehydroepiandrosterone], the CC50 at 24 h (AC50 (uM) modified / 1000) was > 90 µM. Turning to `CCOC(=O)[C@@](C)(N)Cc1ccc(O)c(O)c1` [Methyldopate hydrochloride], the CC50 at 24 h (AC50 (uM) modified / 1000) was > 20 µM. Regarding `COC(=O)CC#N` [Methyl cyanoacetate], the CC50 at 24 h (AC50 (uM) modified / 1000) was > 100 µM. Take `OCCCCC(O)CO` (centres unmarked) [1,2,6-Hexanetriol]: the CC50 at 24 h (AC50 (uM) modified / 1000) was > 90 µM. For the compound `COP(=S)(OC)Oc1nc(Cl)c(Cl)cc1Cl` [Chlorpyrifos-methyl], the CC50 at 24 h (AC50 (uM) modified / 1000, Tox21_110001=Tox21_300700, viability, 1 nM T3 present, 24 h) was > 90 µM. As for `C=C(C#N)C(=O)OCC` [Ethyl cyanoacrylate], the CC50 at 24 h (AC50 (uM) modified / 1000) was > 90 µM. In the case of `O=C(O)[C@@H]1[C@H](C(=O)O)[C@H]2CC[C@@H]1O2` [Endothal], the CC50 at 24 h (AC50 (uM) modified / 1000) was > 90 µM.

On to `CC(C)N(Cc1ccccc1)C(=O)C(C)(C)C` [Butam], for which, under “AC50 (uM) modified / 1000”, the CC50 at 24 h was > 90 µM. Turning to `CCc1ccc(C(c2ccc(CC)cc2)C(Cl)Cl)cc1` [p,p'-Ethyl-DDD], the CC50 at 24 h (AC50 (uM) modified / 1000) was 82.4 µM. That is a double-digit micromolar value.

As to `OC(CCCN1CCCCC1)(c1ccccc1)c1ccccc1` [Diphenidol], the CC50 at 24 h (AC50 (uM) modified / 1000) is > 50 µM. Still for that read-out and setting: to `Oc1cc(O)c(Cl)cn1` [Gimeracil] belongs > 50 µM; to `CNC(=O)c1c(I)c(C(=O)NCC(=O)Nc2c(I)c(C(=O)O)c(I)c(C(=O)NCCO)c2I)c(I)c(N(C)C(C)=O)c1I` [Ioxaglic acid], > 50 µM. For the compound `COc1ccc(OC)cc1` [Hydroquinone dimethyl ether], the CC50 at 24 h (AC50 (uM) modified / 1000) was > 90 µM. The same measure, in the same setting: to `O=C(O)c1ccc(Cl)c(Cl)c1` [3,4-Dichlorobenzoic acid] belongs > 90 µM. In the case of `CCCC(C)(COC(N)=O)COC(=O)NC1CC1` (centres unmarked) [Lorbamate], where the note is “AC50 (uM) modified / 1000, Tox21_110001=Tox21_111921, viability, 1 nM T3 present, 24 h”, the CC50 at 24 h was > 50 µM. As for `C=C1[C@H](CO)[C@@H](O)C[C@@H]1n1cnc2c(=O)[nH]c(N)nc21` [Entecavir], where the note is “AC50 (uM) modified / 1000”, the CC50 at 24 h was > 50 µM. `O=[N+]([O-])c1cccc(CCl)c1` [3-Nitrobenzyl chloride]: the CC50 at 24 h (AC50 (uM) modified / 1000) is > 90 µM. With `C[N+](C)(C)Cc1ccccc1` [Benzyltrimethylammonium chloride], the CC50 at 24 h (AC50 (uM) modified / 1000) is > 90 µM. Take `CCc1cn([C@H]2C[C@H](O)[C@@H](CO)O2)c(=O)[nH]c1=O` [Edoxudine]: the CC50 at 24 h (AC50 (uM) modified / 1000) is > 50 µM. For `COC(=O)c1ccc(C(=O)OC)c(C(=O)OC)c1` [Trimethyl benzene-1,2,4-tricarboxylate], the CC50 at 24 h (AC50 (uM) modified / 1000) is > 90 µM. For `O=C(CCNNC(=O)c1ccncc1)NCc1ccccc1` [Nialamide], for the setting “AC50 (uM) modified / 1000”, the CC50 at 24 h is > 50 µM.

`O=C(NS(=O)(=O)/C=C/c1cccs1)c1ccc(F)cc1Br` [PharmaGSID_48518]: the CC50 at 24 h (AC50 (uM) modified / 1000) was > 90 µM. Still for that read-out and setting: to `Cc1cc(C)c(C)c(C)c1` [1,2,3,5-Tetramethylbenzene] belongs > 90 µM. Turning to `CC(C)=CCC/C(C)=C/CC/C(C)=C/CC/C=C(\C)CC/C=C(\C)CCC=C(C)C` [(E)-Squalene], the CC50 at 24 h (AC50 (uM) modified / 1000) is > 50 µM. Same read-out and setting: to `CCC(=O)OCC(=O)[C@@]1(OC(=O)CC)[C@@H](C)C[C@H]2[C@@H]3CCC4=CC(=O)C=C[C@]4(C)[C@@]3(F)[C@@H](O)C[C@@]21C` [Betamethasone dipropionate] belongs > 50 µM. Turning to `NC(=O)c1ccccc1C(N)=O` [Phthalamide], the CC50 at 24 h (AC50 (uM) modified / 1000) is > 90 µM. Turning to `CCCCCCOC(=O)C(C)C` [Hexyl isobutyrate], the CC50 at 24 h (AC50 (uM) modified / 1000) is > 90 µM. Turning to `O=C(O)c1nc(Cl)c(Cl)c(Cl)c1Cl` [3,4,5,6-Tetrachloropyridine-2-carboxylic acid], the CC50 at 24 h (AC50 (uM) modified / 1000) is > 90 µM. Take `CCC(=O)NCC[C@@H]1CCc2ccc3c(c21)CCO3` [Ramelteon]: the CC50 at 24 h (AC50 (uM) modified / 1000) is > 50 µM. The same measure, in the same setting: to `COc1nc(C)nc(Cl)c1N=C1NCCN1` [Moxonidine] belongs > 20 µM. With `CC1(C)Cc2cccc(N)c2O1` [2,2-Dimethyl-2,3-dihydro-1-benzofuran-7-amine], under “AC50 (uM) modified / 1000”, the CC50 at 24 h is > 90 µM. Turning to `CCC(C)c1cccc(C(C)CC)c1O` (centres unmarked) [2,6-Di(butan-2-yl)phenol], the 50% cytotoxic concentration (CC50) at 24 h (AC50 (uM) modified / 1000) stood at 72.2 µM. For the compound `COc1ccc(CNCC(O)COc2ccc3[nH]c(=O)ccc3c2)cc1OC` (centres unmarked) [Toborinone], the CC50 at 24 h (AC50 (uM) modified / 1000) is > 50 µM.

Turning to `CC(=O)c1ccccc1O` [2-Hydroxyacetophenone], under “AC50 (uM) modified / 1000”, the CC50 at 24 h is > 90 µM. In the case of `CCOC(=O)C1=NN(c2ccccc2)C(=O)C1` [Ethyl 5-oxo-1-phenyl-4,5-dihydro-1H-pyrazole-3-carboxylate], where the note is “AC50 (uM) modified / 1000”, the CC50 at 24 h was > 90 µM. The same measure, in the same setting: to `Cc1cc(C)nc(Nc2ccccc2)n1` [Pyrimethanil] belongs > 90 µM. The same measure, in the same setting: to `O=C(O)c1cc(O)c2c(c1)[C@H]([C@H]1c3cc(C(=O)O)cc(O)c3C(=O)c3c(O[C@@H]4O[C@H](CO)[C@@H](O)[C@H](O)[C@H]4O)cccc31)c1cccc(O[C@@H]3O[C@H](CO)[C@@H](O)[C@H](O)[C@H]3O)c1C2=O` [Sennoside A] belongs > 50 µM. As to `C=C1/C(=C\C=C2/CCC[C@]3(C)[C@@H]([C@H](C)OCCC(C)(C)O)CC[C@@H]23)C[C@@H](O)C[C@@H]1O` [Maxacalcitol], the CC50 at 24 h (AC50 (uM) modified / 1000) was > 50 µM.

Where the note is “AC50 (uM) modified / 1000”, `Cn1sccc1=O` [2-Methyl-4-isothiazolin-3-one hydrochloride] yielded a CC50 at 24 h of 30.8 µM. `CC[C@H]1CN2CCc3cc(OC)c(OC)cc3[C@@H]2C[C@@H]1C[C@H]1NCCc2cc(OC)c(OC)cc21` [Emetine dihydrochloride] yielded a CC50 at 24 h (AC50 (uM) modified / 1000) of 0.065 µM. As to `C/C(=C\c1csc(C)n1)[C@@H]1C[C@@H]2O[C@]2(C)CCC[C@H](C)[C@H](O)[C@@H](C)C(=O)C(C)(C)[C@@H](O)CC(=O)O1` [Epothilone B], the CC50 at 24 h (AC50 (uM) modified / 1000) was 0.00955 µM. Consider `CCCC(=O)Nc1ccc(OCC(O)CNC(C)C)c(C(C)=O)c1` (centres unmarked) [Acebutolol hydrochloride], for which, for the setting “AC50 (uM) modified / 1000”, the CC50 at 24 h was > 20 µM. Turning to `COC(C)(C)C` [Methyl tert-butyl ether], the CC50 at 24 h (AC50 (uM) modified / 1000) was > 90 µM. Same read-out and setting: to `O=C1OC(c2cc(I)c(O)c(I)c2)(c2cc(I)c(O)c(I)c2)c2ccccc21` [Iodophthalein] belongs 36.2 µM. For `c1ccc2sc(SN(C3CCCCC3)C3CCCCC3)nc2c1` [N,N-Dicyclohexyl-2-benzothiazolesulfenamide], the CC50 at 24 h (AC50 (uM) modified / 1000) was > 100 µM. With `CN(C)CCOCCN(C)C` [Bis[2-(dimethylamino)ethyl]ether], the CC50 at 24 h (AC50 (uM) modified / 1000) is > 90 µM.
